Test results reported in publication PMC12336229, “Peptide-mimetics derived from leucyl-tRNA synthetase are potential agents for the therapy of mt-tRNA related diseases” (Frontiers in Pharmacology, 2025).

Assays:
[1] = Plasma stability (UPLC-MS); format: in vitro ADME, human; conditions: 37°C
Method: To assess whether the β32_33 peptide, PMT, PMT-8a and PMT-8b peptide-mimetics are stable in blood, we set up a chromatographic assay able to evaluate compound concentration after incubation in human plasma.
Four different samples from healthy volunteers were used. Blood was drawn by venepuncture in vacutainer containing EDTA as an anticoagulant. Plasma was separated by centrifugation and immediately used for the experiments. Each compound was dissolved in 500 μL plasma at a final concentration of 0.2 mM and split into two aliquots, one of which was immediately analysed to assess the basal compound level (T0); the other was incubated at 37°C under gentle shaking, and the amount of each compound was measured at different time points (i.e., 1.5, 3, 6 and 72 h).
To perform chromatographic analyses, the samples were treated with 3 volumes of acetonitrile containing 1% formic acid and then extracted by using the Ostro™ pass-through sample preparation system to remove proteins and phospholipids. Samples were dried under vacuum, resuspended in 100 μL of 0.1% formic acid containing 5% acetonitrile, and then injected directly onto the chromatographic column.
Chromatographic analyses were performed on a Water Acquity H-Class UPLC system (Waters, Milford, MA, United States), including a quaternary solvent manager (QSM), a sample manager with a flow-through needle system (FTN), a photodiode array detector (PDA) and a single-quadruple mass detector with electrospray ionization source (ACQUITY QDa). Analyses were performed on a reverse phase C18 column (75 mm × 3.2 mm i. d., 2.5 μm particle size). The mobile phase was solvent A, 0.1% formic acid in water, and solvent B, 0.1% formic acid in acetonitrile. The flow rate was 0.5 mL/min, the column temperature was set at 25°C and the elution was performed by linearly increasing the concentration of solvent B up to 70% in 7 min. Mass spectrometric detection was performed in the positive electrospray ionization mode, using nitrogen as the nebulizer gas. Analyses were performed in the Total Ion Current (TIC) mode with a mass range of 100–1200 m/z. The capillary voltage was 0.8 kV, cone voltage 8 V, ion source temperature 120°C and probe temperature 600°C. Quantification was performed by Selected Ion Recording (SIR): at m/z = 917.88, corresponding to the [M+2H]^2+ ion obtained from either β32_33 peptide or PMT; at m/z = 961.42, corresponding to the [M + H] ^+ obtained from PMT-8a; and at m/z = 869.48, corresponding to the [M + H]^+ ion obtained from PMT-8b.

[2] = test system: mutant cybrids; test: Confocal fluorescence microscopy, co-localization with mitochondria (Mitotracker Red); format: cell-based, human
Method: Previously established osteosarcoma-derived (143B.TK-) cybrid cell lines from patients, which bear either the m.3243A>G mutation in mt-tRNA^Leu(UUR) or the m.8344A>G mutation in mt-tRNA^Lys and controls ([Perli et al., 2014]; [Perli et al., 2016]; [Perli et al., 2020]) were used.
Constructs made of compounds listed in Table 1, comprising D-peptides linked to the Cy5 fluorophore via maleimide cross-linker, were administered to sub-confluent cybrid cell cultures at 0.25 µM in glucose medium. About 24 h after treatment with each construct, cells were incubated with 200 nM Mitotracker Red FM (LifeTechnologies Italia, Monza, Italy) for 30 min at 37°C.
Subsequently, cells were visualized by confocal microscopy. Images of 800 × 800 px (at 88 nm/px) were acquired at the Olympus iX83 FluoView1200 laser scanning confocal microscope using a 60 × NA1,35 oil objective (Olympus Italia SRL Milano, Italy), zoom 3×, 559 nm, and 635 nm lasers and filter setting for Mitotracker Red and Cy5. The fluorescence images were analysed with the ImageJ software ([Rasband, 2018]) to determine the Pearson’s correlation coefficient.
For a subset of experiments, we evaluated the mt localization of constructs up to 72 h after treatment. PMT and PMT fragments were administered to sub-confluent cybrids at a concentration of 0.25 µM in the glucose medium. At 24-, 48- and 72-h after treatment, cells were incubated with Mitotracker Red and visualized by confocal microscopy. After each confocal imaging section, a fresh glucose medium was added to the cells, which were maintained under standard conditions (a humidified atmosphere of 95% air and 5% CO2 at 37°C).

[3] = test system: Adult C57BL/6 male mice; test: Morphological analysis of selected organs (hematoxylin and eosin); format: in vivo, mouse; conditions: 1, 5 and 10 mg/kg i.v.; hematoxylin and eosin sections; treated vs controls
Method: After the test, mice were sacrificed under general anaesthesia (4% isoflurane in medical air) by cardiac puncture to withdraw blood, brain, heart, liver, kidney, spleen, and lymph nodes, which were collected into tubes with buffered formalin and stored at +4°C.
At the end of the tolerability test, tissues collected from animals injected with saline (n = 5) or treated with 1, 5 and 10 mg/kg of PMT (n = 10), were formalin-fixed and paraffin-embedded. Five µm-thick sections were obtained from the paraffin blocks and stained with hematoxylin and eosin for histologic examination.

For CC[C@@H](C)[C@@H](NC(=O)[C@@H](CC(C)C)NC(=O)[C@@H](C)NC(=O)[C@H](NC(=O)[C@@H](CCCNC(=N)N)NC(=O)[C@H]1CCCN1C(=O)[C@@H](CO)NC(=O)[C@@H](CC(C)C)NC(=O)[C@@H](Cc1ccccc1)NC(=O)[C@@H](CO)NC(=O)[C@@H](CCCCN)NC(=O)[C@H](N)CCCCN)[C@H](C)O)C(=O)N[C@H](CC(N)=O)C(=O)N[C@H](Cc1ccccc1)C(=O)N[C@H](CC(C)C)C(=O)N[C@@H](C(N)=O)C(C)C [PMT], the remaining at 72 h, 0.2 mM ([1]; 72 h, human EDTA plasma from four healthy volunteers, gentle shaking, UPLC-MS (SIR), peak area vs time 0, read-out: Amount of detectable compound after incubation with human plasma) was roughly 25%, the “Plasma stability compared with β32_33 peptide” value ([1]; all time points (1.5, 3, 6, 72 h), human plasma, 0.2 mM, UPLC-MS) was “significantly higher plasma stability” and the “Pearson's correlation coefficient (PCC), mt localization” value ([2]; Cy5 constructs 0.25 µM in glucose medium, imaged after 24 h, Mitotracker Red, mean ± SEM of at least five images) was 0.83 ± 0.02. For the same molecule, the “Mitochondrial localization over time” value ([2]; Cy5 constructs 0.25 µM, imaged after 24, 48 and 72 hours) was “colocalize with mitochondria up to 72 hours” and the “Morphological change in organs or tissues” value [3] was “did not reveal any morphological change”.
